Reference: US12459951B2, “Compounds that interact with RAS superfamily proteins for treatment of cancers, inflammatory diseases, rasopathies, and fibrotic disease” (SHY Therapeutics, LLC, priority 2022, dated 2025)

Columns and labels:
[1] = tested on: JNK phosphorylation; assay: JNK Activation Assay (western blot), Panc-1; assay type: cell-based, human; conditions: at 10 μM, Panc-1 pancreatic cancer cell line; starred symbols = activation
Method: Protocol for JNK Activation Assay
This assay is referred to as the “JNK Activation Assay” throughout this application.
Cell lines: Human tumor-derived pancreatic cancer cell line Panc-1 (expressing KRas […] mutant) was purchased from American Type Culture Collection and grown in complete DMEM-High Glucose medium, supplemented with penicillin (100 U/mL), streptomycin (100 μg/mL), and 10% heat-inactivated FBS at 37° C. in a humidified incubator with 5% CO2.
Method 1: Cells were plated at 350000 cells/well density in a 12-well plate, allowed 3 hours to adhere to the plate, then starved in the appropriate medium in the presence of 0.5% FBS overnight. The small molecules to be tested were added to the cells in the final concentration of 10 μM in the presence of 0.3% DMSO for 6 hours incubation at 37° C. For IC50 value determination, serial dilutions of compounds were added to cells under the same conditions. Next, cells were stimulated with 1.5 ng/ml EGF for 15 minutes then cells were lysed with lysis buffer containing 1% Triton X-100, EDTA, and Halt™ Protease & Phosphatase Inhibitor Cocktail (Thermo Scientific). Protein concentration was assessed by BCA protein assay (Thermo Scientific). Phosphorylation level of JNK was determined by western blot.
Method 2: Cells were plated at 350000 cells/well density in a 12-well plate in the presence of 10% FBS. The next day small molecules to be tested were added to the cells in the final concentration of 10 μM in the presence of 0.3% DMSO for 6 hours incubation at 37° C. For IC50 value determination, serial dilutions of compounds were added to cells under the same conditions. Next, cells were lysed with lysis buffer containing 1% Triton X-100, EDTA, and Halt™ Protease & Phosphatase Inhibitor Cocktail (Thermo Scientific). Protein concentration was assessed by BCA protein assay (Thermo Scientific). Phosphorylation level of JNK was determined by western blot.
Western blot protocol: Equal amounts of protein (15-50 μg) were separated by SDS-PAGE and transferred to nitrocellulose membranes (Invitrogen by Thermo Fisher Scientific). The membrane was stained with Ponceau S Stain (Boston BioProducts) to verify uniform protein loading. Membranes were blocked with 10% milk and phosphorylation levels of JNK were assessed by incubating overnight at 4° C. with the antibody Phospho-SAPK/JNK (Thr183/Tyr185), from Cell Signaling Technology. Then the membranes were incubated with HRP-conjugated secondary antibody (Jackson Immunoresearch, West Grove, PA). Bands were incubated in Amersham ECL Prime Western Blotting Detection Reagent (GE Healthcare) and visualized using the ChemiDoc MP imaging system (Bio-Rad).

[2] = tested on: KRas G12C mutant; assay: Ras GTP Binding Domain Inhibition Assay (Ras Superfamily Assay); conditions: for KRas G12C mutant + SOS: % inh.: with SOS; for KRas G12C mutant: % inh.: without SOS
In short: (§1)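 Ni-plate capture of His-tagged protein (10-30 μg/mL, o/n 4° C); cpd 20 μM or dilution series, 1% DMSO, 3 h RT ± Sos 556-1049 last h; 100 nM Cy-labelled GTP 45 min RT; 3× wash; fluorescence read.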

[3] = tested on: KRas Q61H mutant; assay: as above; conditions: 20 μM compound; for KRas Q61H mutant + SOS: % inh.: with SOS; for KRas Q61H mutant: % inh.: without SOS
In short: as §1

[4] = Mouse Liver Microsome Metabolic Stability Assay; assay type: in vitro ADME; conditions: pH 7.4, Mouse liver microsomes, 37° C., NADPH, read-out: t½
Method: Biological Example 10: Assessment of Metabolic Stability in Mouse Liver Microsomes
Metabolic Stability Assay: Microsomal incubations were carried out in 96-well plates in 5 aliquots of 30 μL each (one for each time point). Liver microsomal incubation medium comprised of phosphate buffer (100 mM, pH 7.4), MgCl2 (3.3 mM), NADPH (3 mM), glucose-6-phosphate (5.3 mM), glucose-6-phosphate dehydrogenase (0.67 units/ml) with 0.42 mg of liver microsomal protein per mL. In the control reactions the NADPH-cofactor system was substituted with phosphate buffer. Test compounds (2 μM, final solvent concentration 1.6%) were incubated with microsomes at 37° C., shaking at 100 rpm. Each reaction was performed in duplicates. Five time points over 40 minutes were analyzed. The reactions were stopped by adding 5 volumes of methanol containing internal standard to incubation aliquots, followed by protein sedimentation by centrifuging at 5500 rpm for 4 minutes. Supernatants were analyzed using the HPLC system coupled with tandem mass spectrometer.
The elimination constant (kel), half-life (t1/2) and intrinsic clearance (Clint) were determined in plot of […] versus time, using linear regression analysis:
In order to indicate the quality of the linear regression analysis, the R (correlation coefficient) values are provided. In some cases, the last time point is excluded from the calculations to ensure acceptable logarithmic linearity of decay.
Table 9 show metabolic stability data for selected compounds tested in the Mouse Liver Microsome Metabolic Stability assay described above.

Row | KRas G12C mutant + SOS: % inh. ([2]; 20 μM compound) | KRas G12C mutant: % inh. ([2]; 20 μM compound) | KRas Q61H mutant + SOS: % inh. [3] | KRas Q61H mutant: % inh. [3] | KRas G12C mutant + SOS: % inh. ([2]; at 20 μM) | KRas G12C mutant: % inh. ([2]; at 20 μM) | half-life at 2 µM [4] [min] | Compound | % inh of JNK in Panc-1 [1]
1 | 0 (0 = 0% inhibition) | B (B = 26-49% inhibition) | 0 (0 = 0% inhibition) | A (A = 1-25% inhibition) |  |  |  | COCC1CCN(c2nc(-c3ccccn3)nn3cc(-c4ccn(C(C)C)n4)c(C)c23)C1 (racemic) [Compound 10, rac 6-(1-Isopropyl-1H-pyrazol-3-yl)-4-(3-(methoxymethyl)pyrrolidin-1-yl)-5-methyl-2-(pyridin-2-yl)pyrrolo[2,1-f][1,2,4]triazine] | E* (E* = 1-30% activation)
2 | 0 (0 = 0% inhibition) | B (B = 26-49% inhibition) | 0 (0 = 0% inhibition) | A (A = 1-25% inhibition) |  |  |  | COC[C@@H]1CC[C@@H]1CNc1nc(-c2ccccn2)nn2cc(-c3ccn(C(C)C)n3)c(C)c12 (racemic) [Compound 11, rac 6-(1-Isopropyl-1H-pyrazol-3-yl)-N-(((1S,2R)-2-(methoxymethyl)cyclobutyl)methyl)-5-methyl-2-(pyridin-2-yl)pyrrolo[2,1-f][1,2,4]triazin-4-amine] | G* (G* = 75-99% activation)
3 | 0 (0 = 0% inhibition) | B (B = 26-49% inhibition) | 0 (0 = 0% inhibition) | 0 (0 = 0% inhibition) |  |  |  | COC1CCCN(c2nc(-c3ccccn3)nn3cc(-c4ccn(C(C)C)n4)c(C)c23)C1 (racemic) [Compound 12, rac 6-(1-Isopropyl-1H-pyrazol-3-yl)-4-(3-methoxypiperidin-1-yl)-5-methyl-2-(pyridin-2-yl)pyrrolo[2,1-f][1,2,4]triazine] | E* (E* = 1-30% activation)
4 | 0 (0 = 0% inhibition) | A (A = 1-25% inhibition) | 0 (0 = 0% inhibition) | 0 (0 = 0% inhibition) |  |  |  | COc1cc(Nc2nc(-c3ccccn3)nn3cc(-c4ccn(C(C)C)n4)c(C)c23)ncn1 [Compound 13, 6-(1-Isopropyl-1H-pyrazol-3-yl)-N-(6-methoxypyrimidin-4-yl)-5-methyl-2-(pyridin-2-yl)pyrrolo[2,1-f][1,2,4]triazin-4-amine] | H* (H* ≥ 100% activation)
5 | 0 (0 = 0% inhibition) | B (B = 26-49% inhibition) | 0 (0 = 0% inhibition) | 0 (0 = 0% inhibition) |  |  |  | COc1cccc(Nc2nc(-c3ccccn3)nn3cc(-c4ccn(C(C)C)n4)c(C)c23)n1 [Compound 14, 6-(1-Isopropyl-1H-pyrazol-3-yl)-N-(6-methoxypyridin-2-yl)-5-methyl-2-(pyridin-2-yl)pyrrolo[2,1-f][1,2,4]triazin-4-amine] | F* (F* = 31-74% activation)
6 | 0 (0 = 0% inhibition) | 0 (0 = 0% inhibition) | A (A = 1-25% inhibition) | A (A = 1-25% inhibition) |  |  |  | COc1cccc(-c2cn3nc(-c4nccn4C)nc(O)c3c2C)c1Cl [Compound 15, 6-(2-Chloro-3-methoxyphenyl)-5-methyl-2-(1-methyl-1H-imidazol-2-yl)pyrrolo[2,1-f][1,2,4]triazin-4-ol] | F* (F* = 31-74% activation)
7 | 0 (0 = 0% inhibition) | B (B = 26-49% inhibition) | 0 (0 = 0% inhibition) | A (A = 1-25% inhibition) |  |  |  | COCCNc1nc(-c2nccn2C)nn2cc(-c3cccc(OC)c3Cl)c(C)c12 [Compound 16, 6-(2-Chloro-3-methoxyphenyl)-N-(2-methoxyethyl)-5-methyl-2-(1-methyl-1H-imidazol-2-yl)pyrrolo[2,1-f][1,2,4]triazin-4-amine] | F* (F* = 31-74% activation)
8 |  |  |  |  | D (D = 76-100% inhibition) | C (C = 50-75% inhibition) |  | Cc1c(-c2ccn(C)n2)cn2nc(-c3nccn3C)nc(N)c12 [Compound 211, 5-Methyl-2-(1-methyl-1H-imidazol-2-yl)-6-(1-methyl-1H-pyrazol-3-yl)pyrrolo[2,1-f][1,2,4]triazin-4-amine] | 
9 |  |  |  |  |  |  | < 10 | Cc1c(-c2ccn(C)n2)cn2nc(-c3nccn3C)nc(Nc3cc(N4CCOCC4)ccn3)c12 [Compound 222, 5-Methyl-2-(1-methyl-1H-imidazol-2-yl)-6-(1-methyl-1H-pyrazol-3-yl)-N-(4-morpholinopyridin-2-yl)pyrrolo[2,1-f][1,2,4]triazin-4-amine] | 
10 |  |  |  |  |  |  | > 10 | COc1ccc(Nc2nc(-c3nccn3C)nn3cc(-c4ccn(C)n4)c(C)c23)nc1 [Compound 224, N-(5-Methoxypyridin-2-yl)-5-methyl-2-(1-methyl-1H-imidazol-2-yl)-6-(1-methyl-1H-pyrazol-3-yl)pyrrolo[2,1-f][1,2,4]triazin-4-amine] | 
11 |  |  |  |  |  |  | > 10 | Cc1ccc(Nc2nc(-c3nccn3C)nn3cc(-c4ccn(C)n4)c(C)c23)nc1 [Compound 226, 5-Methyl-2-(1-methyl-1H-imidazol-2-yl)-6-(1-methyl-1H-pyrazol-3-yl)-N-(5-methylpyridin-2-yl)pyrrolo[2,1-f][1,2,4]triazin-4-amine] | 
12 |  |  |  |  |  |  | > 10 | Cc1c(-c2ccn(C)n2)cn2nc(-c3nccn3C)nc(Nc3ccc(N(C)C)cn3)c12 [Compound 227, N5,N5-Dimethyl-N2-(5-methyl-2-(1-methyl-1H-imidazol-2-yl)-6-(1-methyl-1H-pyrazol-3-yl)pyrrolo[2,1-f][1,2,4]triazin-4-yl)pyridine-2,5-diamine] | 
13 |  |  |  |  |  |  | > 10 | COc1cc(Nc2nc(-c3nccn3C)nn3cc(-c4ccn(C)n4)c(C)c23)ncc1C [Compound 235, N-(4-Methoxy-5-methylpyridin-2-yl)-5-methyl-2-(1-methyl-1H-imidazol-2-yl)-6-(1-methyl-1H-pyrazol-3-yl)pyrrolo[2,1-f][1,2,4]triazin-4-amine] | 
14 |  |  |  |  |  |  | > 10 | COc1cc(Nc2nc(-c3nccn3C)nn3cc(-c4ccn(C)n4)c(C)c23)ncc1C1CC1 [Compound 238, N-(5-Cyclopropyl-4-methoxypyridin-2-yl)-5-methyl-2-(1-methyl-1H-imidazol-2-yl)-6-(1-methyl-1H-pyrazol-3-yl)pyrrolo[2,1-f][1,2,4]triazin-4-amine] | 
